Reference: PubChem BioAssay (NCI)
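Five concentrations, 48 hours, 96-well plates. At the GI50, growth is halved. The concentration for full growth arrest is given as TGI.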

Legend:
Assay in all cases: NCI tumour cell line growth inhibition, 48 h
BT-549 breast = system: BT-549 breast
DU-145 prostate = system: DU-145 prostate
MCF7 breast = system: MCF7 breast
NCI-H23 lung = system: NCI-H23 lung
NCI/ADR-RES ovarian = system: NCI/ADR-RES ovarian
OVCAR-3 ovarian = system: OVCAR-3 ovarian
HL-60(TB) leukemia = system: HL-60(TB) leukemia

Structure (SMILES)	TGI (BT-549 breast) [µM]	TGI (DU-145 prostate) [µM]	TGI (MCF7 breast) [µM]	TGI (NCI-H23 lung) [µM]	TGI (NCI/ADR-RES ovarian) [µM]	TGI (OVCAR-3 ovarian) [µM]	GI50 (BT-549 breast) [µM]	GI50 (DU-145 prostate) [µM]	GI50 (HL-60(TB) leukemia) [µM]	TGI (HL-60(TB) leukemia) [µM]	GI50 (MCF7 breast) [µM]	GI50 (NCI-H23 lung) [µM]	GI50 (NCI/ADR-RES ovarian) [µM]	GI50 (OVCAR-3 ovarian) [µM]
O=[N+]([O-])c1cc(CCl)ccc1CCl	11.1	2.99	3.28	5.1	8.84	3.27								
Cc1cccc2c(N=Nc3ccc(S(N)(=O)=O)cc3)c(O)[nH]c12	> 25	> 25	> 25	> 25	> 25	> 25	> 25	> 25	> 25	> 25	> 25	> 25	> 25	> 25
O=C(O)c1ccc2c(c1Nc1ccccc1)C(=O)c1ccccc1C2=O	70	> 100	> 100	> 100	> 100	> 100	16.5	82.8	79.3	> 100	38.1	19	52.3	20.7
COc1cc(C#N)cc(OC)c1OCCOCCOc1c(OC)cc(C#N)cc1OC	73.2	> 100	> 100	> 100	> 100	> 100	25.3	> 100	19	85.7	63.4	> 100	24.8	> 100
NC(CNO)C(=O)O (stereo not drawn)	> 100	> 100	> 100	> 100	> 100	> 100				21.7				
Clc1cc(Cl)c(Cl)c(-c2nc(-c3cccnc3)cs2)c1	70.2	96.2	> 100	> 100	> 100	81.9	20.6	2.55	14.3	> 100	10.4	30	8.78	16.2
O=c1cc(-c2ccc(Cl)cc2)[nH]c2ncccc12	> 100	> 100	> 100	> 100	> 100	73.8			16.6	41.6				23.4
O=C(Nc1n[nH]c2nc(-c3ccco3)ccc12)C1CC1	> 25	> 25	> 25	> 25	> 25	> 25	> 25	> 25	> 25	> 25	> 25	> 25	> 25	> 25
CN(C)CCCN(c1nc(C(Cl)(Cl)Cl)ns1)c1nc(C(Cl)(Cl)Cl)ns1		6.79	3.62	5.55	4.41	4.09		2.75	1.52	3.43	1.9	2.04	1.89	2.01
CCCc1cc2cc(-n3nc(C)c4c3CC(C)(C)CC4=O)cc(NC3CCC(O)CC3)c2c(=O)[nH]1 (stereo not drawn)	> 100	> 100	> 100	> 100	> 100	> 100	0.959	0.0527	0.13	1.2	0.0516	0.0584	0.986	0.58
COc1ccc2c(c1)CCc1c(-c3noc4c3CCc3cc(OC)ccc3-4)noc1-2	> 100	> 100	> 100	> 100	> 100	> 100				> 100				
Cn1ncc2c(/N=C/c3cccs3)[nH]c(=S)nc21	> 91.3	> 70.5	> 80.3	> 76.1	> 100	> 76.7	33.2	25.6	43.6	> 100	27.4	33.7	> 100	29.2
CN[C@]12CC3(C=CC(=O)C=C3)O[C@@]1(Cc1ccc(OC)cc1)N(C)C(=O)N2	4.22	14.9	15.1	9.35	> 100	4.14	1.52	4.3	1.84	6.49	0.778	2.88	3.46	0.793
Cc1cc(C)c(O)c(Cc2cccc(Cc3cc(C)cc(C)c3O)c2O)c1	> 100	> 100	> 100	> 100	> 100	> 100								
O=C1/C(=C\C(Cl)=C/c2ccc([N+](=O)[O-])cc2)SC(=S)N1CCc1ccc(O)cc1	1.28	1.72	1.66	2.17	1.78	1.43	0.332	0.471	0.341	6.63	0.365	0.632	0.342	0.4
COc1cc(/C=C2\CN(C)C/C(=C\c3cc(OC)c(OC)c(OC)c3)C2=O)cc(OC)c1OC	0.923	1.22	1.83	1.61	> 100	0.892	0.295	0.355	0.34	1.67	0.317	0.42	0.349	0.328
Cc1ccc(S(=O)(=O)/N=c2\ssc(Nc3ccccc3)c2Cl)cc1	17	27.6		27.1	27.6	20.2	5.27	7.74	15.5	> 50		11	10.1	6.08
COc1ccc(-c2cc(=O)c3c(OC)c(OC)c(OC)c(OC)c3o2)cc1OC	> 100	> 100	> 100	> 100	97.1	> 100				59				
C=C1C(=O)O[C@H]2[C@H]1CC/C(COC(=O)CCCCCCCCC(=O)OC/C1=C/CC[C@@]3(C)O[C@H]3[C@H]3OC(=O)C(=C)[C@@H]3CC1)=C\CC[C@@]1(C)O[C@@H]21	3.22	4.2		4.25	13.5	3.11	1.54	2.03	2.05	8.26		2	3.14	1.67
